# Assays:
# [1] = Damp storage and drying of maleate and hydrochloride (XRD, DSC, dry weight, Karl-Fischer water content); type: physicochemical; settings: for Change in crystalline form by X-ray diffraction pattern: after damp storage (25° C., 75% and 95% R.H., 7 days) and drying (50° C., vacuum, 7 days)
# Protocol: Maleate and hydrochloride according to Example E8 are stored firstly at 25° C. and 75% and 95% relative atmospheric humidity for 7 days and thereafter are dried for 7 days in the drying cabinet at 50° C. under a vacuum. Before storage begins, X-ray diffraction patterns (XRD) are recorded, DSC performed to determine transition points (Tp), dry weight (DW) and the Karl-Fischer water content (WC) are determined and the same values again after damp storage and drying. The X-ray diffraction patterns show no change in crystalline forms A and D after damp storage and drying. The initial vales for the hydrochloride are Tp=116.27° C., DW=6.35% and WC 8.00%. The initial values for the maleate are Tp=170.4° C. and 179.85° C., DW=0 and WC=0.2%. The results are given in Tables 3 (75% relative atmospheric humidity) and 4 (95% relative atmospheric humidity).
# [2] = Storage under elevated atmospheric humidity, samples investigated by Raman spectroscopy; type: physicochemical; settings: room temperature, 75% relative atmospheric humidity
# Description: The amorphous form according to Example B1 is stored at room temperature and 75% relative atmospheric humidity and samples are investigated after 2 days, 1, 2, 3, 4 and 8 weeks using Raman spectroscopy. […] The same mixture is still observed after 8 weeks.
# The maleate produced according to Example A1 is stored at room temperature and 75% relative atmospheric humidity and samples are investigated after 3 days, 1, 2, 3, 4, 8 and 10 weeks using Raman spectroscopy.
# The crystalline form B produced according to Example D1 is stored at room temperature and 75% relative atmospheric humidity and samples are investigated after 3 days, 1, 2, 3, 4 and 8 weeks using Raman spectroscopy.
# FT Raman spectra are recorded using a Bruker RFS 100 FT-Raman system, which is operated with an Nd:YAG laser (wavelength 1064 nm) and a germanium detector cooled with liquid nitrogen. For each sample, 64 scans are accumulated with a resolution of 2 cm^−1. In general, a laser power of 100 mW is used.
# [3] = Stability at elevated temperature in open and closed vessels (HPLC, FT Raman); type: physicochemical
# Protocol: The crystalline forms are stored in open and closed vessels and, after a predetermined time, possible changes are measured chromatographically (HPLC) as stability parameters.
# [4] = Stability under pressure (tablet pressing); type: physicochemical; settings: tablet press, vacuum, 100 MPa, 60 minutes
# Protocol: The maleate produced according to Example A1 is introduced into a tablet press and pressed under a vacuum at a pressure of 100 MPa for 60 minutes to form a tablet.
# The procedure is carried out in accordance with Example E5a) with crystalline form B according to Example D1.
# [5] = General properties stated in the description (solubility, hygroscopicity)
# [6] = Water absorption of maleate and hydrochloride by DVS (Example E8, comparison); type: physicochemical; settings: 25° C.
# Protocol: (§1) Water absorption is determined by means of dynamic water vapour absorption (Dynamic Vapour Sorption, DVS) using apparatus DVS-1 from Surface Measurement System Ltd. The sample is placed in a platinum crucible at the tip of a microchemical balance. Then the sample is firstly equilibrated at 50% relative atmospheric humidity and then subjected to a predefined measuring program. The temperature is 25° C. The change in weight of the sample is determined after a stepwise increase in relative atmospheric humidity by 10% steps up to 90%.
# [7] = Stability under grinding conditions (trituration, ball mill); type: physicochemical
# Protocol: The maleate produced according to Example A1 is triturated with a pestle in a mortar for 5 minutes. […] Amorphous fractions are not observed.
# Crystalline form B according to Example D1 is triturated with a pestle in a mortar for 5 minutes.
# The maleate produced according to Example A1 is introduced into an agate ball mill (Retsch MM200 mixing mill with 5 mm agate ball) and ground at 20 Hz and room temperature for 180 minutes. […] Amorphous fractions are not observed.
# The procedure is carried out in accordance with Example E4c) with crystalline form B according to Example D1.
# [8] = Water absorption by Dynamic Vapour Sorption (Example E6); type: physicochemical; settings: 25° C.; for Crystalline form at the end of the DVS measuring cycle: maleate; for Water absorption: DVS
# Protocol: as §1, with “determined.” for “determined after a stepwise increase in relative atmospheric humidity by 10% steps up to 90%.”
# [9] = Storage of amorphous form at room temperature and 20% or 90% atmospheric humidity for 24 hours; type: physicochemical; settings: 20 mg, room temperature
# [10] = 75% R.H. storage, then dried 7 days at 50° C. under vacuum
# [11] = 95% R.H. storage, then dried 7 days at 50° C. under vacuum
# [12] = after damp storage, 25° C., 75% relative atmospheric humidity, 7 days
# [13] = after damp storage, 25° C., 95% relative atmospheric humidity, 7 days
# [14] = 40° C./75% R.H., 1 week, maleate
# [15] = 60° C. (closed), 1 week, maleate
# [16] = 60° C. (closed), 4 weeks, maleate
# [17] = 60° C./75% R.H., 4 weeks, maleate
Compound,"Tp [1, 10] [°C]","WC [1, 10] [%]","WC [1, 11] [%]",Change in crystalline form by X-ray diffraction pattern [1],"Tp [1, 12] [°C]","WC [1, 12] [%]","WC [1, 13] [%]","DW (dry weight) ([1]; initial value, before storage) [%]","WC (Karl-Fischer water content) ([1]; initial value, before storage) [%]","HPLC [3, 14] [%]","HPLC [3, 15] [%]","HPLC [3, 16] [%]","HPLC [3, 17] [%]","HPLC ([3]; −18° C. (reference), 4 weeks) [%]",Hygroscopicity [5],Solubility in polar solvents [5],Crystalline form at the end of the DVS measuring cycle [8],Water absorption ([8]; measuring cycle),"Crystalline form found by Raman spectroscopy after storage ([2]; after 8 weeks, maleate)",also measured
"CN(C)C[C@@H]1CCCC[C@H]1c1cccc(O)c1.O=C(O)/C=C\C(=O)O [Crystalline form A, (+)-(1R,2R)-3-[2-(dimethylamino)methyl-(cyclohex-1-yl)]-phenol maleate]",165.33,0.20,0.50,no change,165.41,0.20,0.20,0,0.2,100.2,100.2,100.5,100.3,100,non-hygroscopic,very good,unchanged crystalline form A,approx. 0.2 wt. %,,"Crystalline form found by Raman spectroscopy after storage ([2]; after 10 weeks): virtually unchanged; Stability at elevated temperature (summary) ([3]; storage in open and closed vessels): very stable with regard to chemical stability and crystal shape; Crystalline form after tablet pressing ([4]; listed as Example A1, maleate): unchanged form; Release of the absorbed moisture ([6]; at approx. 10% relative atmospheric humidity): released again completely; Water absorption ([6]; relative atmospheric humidity raised in 10% steps up to 90%): 0.06%; Amorphous fractions after grinding ([7]; agate ball mill, 20 Hz, room temperature, 180 minutes): not observed; Crystalline form after grinding ([7]; agate ball mill, 20 Hz, room temperature, 180 minutes, listed as Example A1, maleate): unchanged form; Amorphous fractions after trituration ([7]; pestle in a mortar, 5 minutes): not observed; Crystalline form after trituration ([7]; pestle in a mortar, 5 minutes, listed as Example A1, maleate): unchanged form"
"CN(C)C[C@@H]1CCCC[C@H]1c1cccc(O)c1.O=C(O)/C=C\C(=O)O [Crystalline form B, (+)-(1R,2R)-3-[2-(dimethylamino)methyl-(cyclohex-1-yl)]-phenol maleate]",,,,,,,,,,100.3,100.6,100.9,101.1,100,,very good,mixture of crystalline forms A and B,approx. 0.2 wt. %,virtually unchanged,"FT Raman (determination of crystalline form) ([3]; 40° C./75% R.H., 1 week): A and B; FT Raman (determination of crystalline form) ([3]; 60° C. (closed), 1 week): A and B; FT Raman (determination of crystalline form) ([3]; 60° C. (closed), 4 weeks): A and B; FT Raman (determination of crystalline form) ([3]; 60° C./75% R.H., 4 weeks): A and B; FT Raman (determination of crystalline form) ([3]; −18° C. (reference), 4 weeks): A and B; Crystalline form after tablet pressing ([4]; maleate): mixture of crystalline forms A and B; Crystalline form after grinding ([7]; agate ball mill, 20 Hz, room temperature, 180 minutes, maleate): mixture of crystalline forms A and B; Crystalline form after trituration ([7]; pestle in a mortar, 5 minutes, maleate): mixture of crystalline forms A and B"
"CN(C)C[C@@H]1CCCC[C@H]1c1cccc(O)c1.Cl [Hydrochloride, (+)-(1R,2R)-3-[2-(dimethylamino)methyl-(cyclohex-1-yl)]-phenol hydrochloride]",113.83,6.00,6.60,no change,116.22,8.50,8.50,6.35,8.00,,,,,,decidedly hygroscopic,,,,,"DW [1, 10]: 6.12%; DW [1, 11]: 6.74; Tp [1, 11]: 114.47 °C; DW [1, 12]: 5.92%; DW [1, 13]: 7.84%; Tp [1, 13]: 116.52 °C; Tp (transition point, DSC) ([1]; initial value, before storage): 116.27 °C; Water absorption altogether ([6]; further increase to 90% relative atmospheric humidity): approx. 5 wt. %; Water absorption ([6]; relative atmospheric humidity increased to approx. 75%): approx. 2 wt. %; Water released on desorption altogether ([6]; relative atmospheric humidity lowered in 10% steps): 8.5%"
"CN(C)C[C@@H]1CCCC[C@H]1c1cccc(O)c1.O=C(O)/C=C\C(=O)O [amorphous form, (+)-(1R,2R)-3-[2-(dimethylamino)methyl-(cyclohex-1-yl)]-phenol maleate]",,,,,,,,,,,,,,,,,mixture of crystalline forms A and B,,same mixture,Crystalline form found by Raman spectroscopy after storage ([2]; after 2 days): mixture of crystalline forms A and B; Form obtained after storage ([9]; 20% atmospheric humidity): mixture of crystalline forms A and B; Form obtained after storage ([9]; 90% atmospheric humidity): only crystalline form A; Water absorption ([8]; up to approx. 33% relative atmospheric humidity): approx. 2.2 wt. %

# Source: patent US7884247B2, “Salt of dimethylaminomethyl-phenyl-cyclohexane and crystalline forms thereof” (Gruenenthal GmbH, priority 2005, dated 2011)
